Test results from US20250333407A1, “Compounds and Their Use for Treatment of Hemoglobinopathies” (Bristol-Myers Squibb Company, priority 2024, published 2025).

How the values were obtained:
Format in all cases: cell-based
ZBTB7A = target: T1, ZBTB7A (Homo sapiens, UniProt O95365+Q96SW2); assay: HUDEP-2 ZBTB7A HiBiT degradation assay; settings: HiBiT-tagged ZBTB7A degradation in HUDEP-2 cells, 24 hours of treatment; read-out: ZBTB7A EC50
T1 construct: HUDEP-2 cells engineered to express a HiBiT tag in either the WIZ (Widely interspaced zinc finger) or ZBTB7A
How it was run: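 HiBiT-tagged HUDEP-2 cells were pre-cultured 48 h in IMDM with EPO, SCF, doxycycline and 5% human plasma, then exposed to compounds at 1.0×10^6 cells/ml for 24 h at 37 °C. Nano-Glo HiBiT lytic luminescence, normalised to DMSO over 10 concentrations, gave EC50 and Y-min.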

WIZ = target: T2, WIZ (Homo sapiens, UniProt O95785+Q96SW2); assay: HUDEP-2 WIZ HiBiT degradation assay; settings: HiBiT-tagged WIZ degradation in HUDEP-2 cells, 24 hours of treatment; read-out: WIZ EC50
T2 construct: HUDEP-2 cells engineered to express a HiBiT tag in either the WIZ (Widely interspaced zinc finger) or ZBTB7A
How it was run: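 HiBiT-tagged HUDEP-2 cells at 1.0×10^6 cells/ml in SFEM II with SCF, EPO, dexamethasone and doxycycline, treated 24 h at 37 °C with a 10-point series ([…]). Luminescence after HiBiT lytic detection, normalized to DMSO; EC50 and Y-min from fitted curves.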

HbF = HbF HiBiT induction assay in HUDEP-2 cells; settings: HUDEP-2 cells with HiBiT tag in HBG1/2, 72 hours of treatment; area under the dose response curve, higher AUC = greater HbF induction
How it was run: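 HUDEP-2 cells carrying a HiBiT tag on HBG1/2 were exposed to compounds for 72 h at 37° C, 5% CO2, in IMDM with EPO, hSCF, DOX, transferrin, insulin, heparin and 5% human plasma. HiBiT luminescence was read after lytic detection; HbF induction is expressed as dose-response AUC, alongside EC50 and Ymax.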

T2 sequence (O95785 whole entry): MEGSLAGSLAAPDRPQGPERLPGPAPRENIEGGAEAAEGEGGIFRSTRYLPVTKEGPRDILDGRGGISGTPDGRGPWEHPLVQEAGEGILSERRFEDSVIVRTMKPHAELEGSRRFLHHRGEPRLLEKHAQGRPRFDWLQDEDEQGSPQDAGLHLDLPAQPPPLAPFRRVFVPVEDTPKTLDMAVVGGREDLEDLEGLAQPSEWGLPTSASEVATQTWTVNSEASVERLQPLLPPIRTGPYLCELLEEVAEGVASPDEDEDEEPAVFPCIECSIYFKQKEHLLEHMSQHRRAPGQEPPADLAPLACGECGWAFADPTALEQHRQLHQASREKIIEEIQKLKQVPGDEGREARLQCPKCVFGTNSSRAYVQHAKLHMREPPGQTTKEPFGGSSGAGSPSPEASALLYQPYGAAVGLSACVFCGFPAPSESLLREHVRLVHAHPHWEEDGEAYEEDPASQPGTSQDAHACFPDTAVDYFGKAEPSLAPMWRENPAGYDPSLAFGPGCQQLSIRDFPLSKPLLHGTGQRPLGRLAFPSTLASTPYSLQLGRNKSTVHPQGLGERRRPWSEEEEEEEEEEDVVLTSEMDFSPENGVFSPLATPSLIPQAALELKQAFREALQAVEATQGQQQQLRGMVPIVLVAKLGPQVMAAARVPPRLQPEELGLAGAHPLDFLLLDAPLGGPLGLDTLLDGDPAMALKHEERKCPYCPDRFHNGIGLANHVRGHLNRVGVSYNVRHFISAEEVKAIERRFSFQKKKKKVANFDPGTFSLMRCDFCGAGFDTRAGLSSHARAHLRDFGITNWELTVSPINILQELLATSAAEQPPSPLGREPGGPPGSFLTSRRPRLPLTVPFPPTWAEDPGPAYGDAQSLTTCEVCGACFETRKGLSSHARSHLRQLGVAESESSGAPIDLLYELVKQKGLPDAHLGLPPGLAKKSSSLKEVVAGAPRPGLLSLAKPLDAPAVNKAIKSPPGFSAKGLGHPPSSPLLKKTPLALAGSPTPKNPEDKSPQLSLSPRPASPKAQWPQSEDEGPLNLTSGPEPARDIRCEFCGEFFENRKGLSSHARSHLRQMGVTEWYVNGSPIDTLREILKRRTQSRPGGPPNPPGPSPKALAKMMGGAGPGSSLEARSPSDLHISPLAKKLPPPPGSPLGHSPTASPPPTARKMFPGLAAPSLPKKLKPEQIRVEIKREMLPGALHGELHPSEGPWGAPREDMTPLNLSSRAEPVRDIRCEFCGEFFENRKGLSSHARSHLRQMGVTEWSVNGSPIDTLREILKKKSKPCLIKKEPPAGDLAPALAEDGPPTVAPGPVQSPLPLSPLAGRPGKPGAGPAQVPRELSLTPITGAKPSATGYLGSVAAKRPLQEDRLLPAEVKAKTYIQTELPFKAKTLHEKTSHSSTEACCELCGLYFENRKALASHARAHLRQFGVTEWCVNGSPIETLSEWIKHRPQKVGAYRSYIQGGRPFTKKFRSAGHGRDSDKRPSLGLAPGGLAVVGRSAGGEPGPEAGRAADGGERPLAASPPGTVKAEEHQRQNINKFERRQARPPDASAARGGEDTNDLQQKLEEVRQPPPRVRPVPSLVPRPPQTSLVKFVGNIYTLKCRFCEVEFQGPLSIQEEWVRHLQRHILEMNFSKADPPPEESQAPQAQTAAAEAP
T2 sequence (Q96SW2 whole entry): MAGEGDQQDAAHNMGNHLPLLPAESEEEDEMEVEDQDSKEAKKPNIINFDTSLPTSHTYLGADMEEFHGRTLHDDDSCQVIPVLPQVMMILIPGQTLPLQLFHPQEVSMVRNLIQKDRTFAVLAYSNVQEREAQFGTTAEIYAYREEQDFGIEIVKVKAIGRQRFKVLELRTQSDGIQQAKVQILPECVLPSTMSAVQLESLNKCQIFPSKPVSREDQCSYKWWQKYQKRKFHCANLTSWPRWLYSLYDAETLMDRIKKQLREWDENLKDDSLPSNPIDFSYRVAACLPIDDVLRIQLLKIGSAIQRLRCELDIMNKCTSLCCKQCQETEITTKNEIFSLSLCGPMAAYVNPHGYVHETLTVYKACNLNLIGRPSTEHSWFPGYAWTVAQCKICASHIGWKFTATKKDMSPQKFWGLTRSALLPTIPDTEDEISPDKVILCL
T2 sequence (Q16531 whole entry partner): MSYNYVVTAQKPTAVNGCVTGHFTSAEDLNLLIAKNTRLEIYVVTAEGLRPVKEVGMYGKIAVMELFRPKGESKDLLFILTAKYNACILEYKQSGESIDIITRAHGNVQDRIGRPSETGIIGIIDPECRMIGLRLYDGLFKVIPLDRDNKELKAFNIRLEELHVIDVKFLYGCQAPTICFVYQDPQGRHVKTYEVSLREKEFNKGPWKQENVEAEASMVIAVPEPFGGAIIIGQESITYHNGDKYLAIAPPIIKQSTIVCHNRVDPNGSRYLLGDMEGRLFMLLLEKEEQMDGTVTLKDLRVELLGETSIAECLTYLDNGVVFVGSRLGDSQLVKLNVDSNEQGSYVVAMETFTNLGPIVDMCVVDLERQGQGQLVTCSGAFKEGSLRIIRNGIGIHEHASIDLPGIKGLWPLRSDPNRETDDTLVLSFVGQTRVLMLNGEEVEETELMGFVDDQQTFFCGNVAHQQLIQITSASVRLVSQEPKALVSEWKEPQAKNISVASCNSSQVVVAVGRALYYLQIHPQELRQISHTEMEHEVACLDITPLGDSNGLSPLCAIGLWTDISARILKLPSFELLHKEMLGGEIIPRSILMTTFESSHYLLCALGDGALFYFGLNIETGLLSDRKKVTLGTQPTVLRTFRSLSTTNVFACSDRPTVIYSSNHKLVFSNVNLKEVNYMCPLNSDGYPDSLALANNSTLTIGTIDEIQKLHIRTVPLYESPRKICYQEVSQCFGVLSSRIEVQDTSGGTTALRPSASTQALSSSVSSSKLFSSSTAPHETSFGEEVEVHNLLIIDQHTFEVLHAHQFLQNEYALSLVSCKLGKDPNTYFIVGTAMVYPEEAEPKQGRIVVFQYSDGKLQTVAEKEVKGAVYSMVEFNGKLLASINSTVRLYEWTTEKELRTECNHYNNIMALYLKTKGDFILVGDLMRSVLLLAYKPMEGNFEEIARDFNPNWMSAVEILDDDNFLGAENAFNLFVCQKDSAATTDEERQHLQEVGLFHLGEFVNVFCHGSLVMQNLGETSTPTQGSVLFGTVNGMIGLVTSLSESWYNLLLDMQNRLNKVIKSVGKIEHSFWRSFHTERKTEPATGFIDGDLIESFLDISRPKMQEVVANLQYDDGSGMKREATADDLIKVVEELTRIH
T1 sequence (O95365 whole entry): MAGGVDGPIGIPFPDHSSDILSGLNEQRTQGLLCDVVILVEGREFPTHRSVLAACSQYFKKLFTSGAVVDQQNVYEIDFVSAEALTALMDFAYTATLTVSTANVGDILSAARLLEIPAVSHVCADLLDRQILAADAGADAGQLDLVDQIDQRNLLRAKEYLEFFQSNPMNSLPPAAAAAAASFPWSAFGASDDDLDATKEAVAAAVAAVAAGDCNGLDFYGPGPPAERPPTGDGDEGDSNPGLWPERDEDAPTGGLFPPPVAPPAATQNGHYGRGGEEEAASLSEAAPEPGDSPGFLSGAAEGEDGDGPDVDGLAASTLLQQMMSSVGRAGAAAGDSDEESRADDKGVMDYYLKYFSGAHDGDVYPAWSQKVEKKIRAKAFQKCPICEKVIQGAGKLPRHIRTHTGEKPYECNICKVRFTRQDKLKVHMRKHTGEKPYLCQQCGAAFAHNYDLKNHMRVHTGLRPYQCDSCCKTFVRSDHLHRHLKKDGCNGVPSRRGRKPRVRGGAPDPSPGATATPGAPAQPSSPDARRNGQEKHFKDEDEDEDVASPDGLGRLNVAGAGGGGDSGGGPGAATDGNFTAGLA
T1 sequence (Q96SW2 whole entry): as the sequence (Q96SW2 whole entry) above
T1 sequence (Q16531 whole entry partner): as the sequence (Q16531 whole entry partner) above

DC50 (ZBTB7A) [µM] | DC50 (WIZ) [µM] | Structure (SMILES) | HBF AUC (HbF)
0.008 | 0.011 | COc1nccc(-c2cc3c(cc2Nc2cccc4c2C(=O)N([C@H]2CCC(=O)NC2=O)C4=O)N(C)C(=O)[C@H](C)O3)c1F [Compound 35, 2-((S)-2,6-dioxopiperidin-3-yl)-4-(((S)-7-(3-fluoro-2-methoxypyridin-4-yl)-2,4-dimethyl-3-oxo-3,4-dihydro-2H-benzo[b][1,4]oxazin-6-yl)amino)isoindoline-1,3-dione] | + (+ = 15 ≤ AUC < 100)
0.019 | 0.015 | COc1nccc(-c2cc3c(cc2Nc2cccc4c2C(=O)N([C@H]2CCC(=O)NC2=O)C4=O)N(C)C(=O)[C@@H](C)O3)c1F [Compound 36, 2-((S)-2,6-dioxopiperidin-3-yl)-4-(((R)-7-(3-fluoro-2-methoxypyridin-4-yl)-2,4-dimethyl-3-oxo-3,4-dihydro-2H-benzo[b][1,4]oxazin-6-yl)amino)isoindoline-1,3-dione] | + (+ = 15 ≤ AUC < 100)
0.013 | 0.007 | Cc1ccc(-c2cc3c(cc2Nc2cccc4c2C(=O)N([C@H]2CCC(=O)NC2=O)C4=O)N(C)C(=O)CO3)c(F)n1 [Compound 37, (S)-2-(2,6-dioxopiperidin-3-yl)-4-((7-(2-fluoro-6-methylpyridin-3-yl)-4-methyl-3-oxo-3,4-dihydro-2H-benzo[b][1,4]oxazin-6-yl)amino)isoindoline-1,3-dione] | + (+ = 15 ≤ AUC < 100)
0.013 | 0.014 | COc1ccc(-c2cc3c(cc2Nc2cccc4c2C(=O)N([C@H]2CCC(=O)NC2=O)C4=O)N(C)C(=O)CO3)cn1 [Compound 38, (S)-2-(2,6-dioxopiperidin-3-yl)-4-((7-(6-methoxypyridin-3-yl)-4-methyl-3-oxo-3,4-dihydro-2H-benzo[b][1,4]oxazin-6-yl)amino)isoindoline-1,3-dione] | ++ (++ = 100 ≤ AUC < 150)
0.016 | 0.013 | COc1ccc(-c2cc3c(cc2Nc2cccc4c2C(=O)N([C@H]2CCC(=O)NC2=O)C4=O)N(C)C(=O)[C@@H](C)O3)cn1 [Compound 39, 2-((S)-2,6-dioxopiperidin-3-yl)-4-(((R)-7-(6-methoxypyridin-3-yl)-2,4-dimethyl-3-oxo-3,4-dihydro-2H-benzo[b][1,4]oxazin-6-yl)amino)isoindoline-1,3-dione] | + (+ = 15 ≤ AUC < 100)
0.016 | 0.012 | COc1ccc(-c2cc3c(cc2Nc2cccc4c2C(=O)N([C@H]2CCC(=O)NC2=O)C4=O)N(C)C(=O)[C@H](C)O3)cn1 [Compound 40, 2-((S)-2,6-dioxopiperidin-3-yl)-4-(((S)-7-(6-methoxypyridin-3-yl)-2,4-dimethyl-3-oxo-3,4-dihydro-2H-benzo[b][1,4]oxazin-6-yl)amino)isoindoline-1,3-dione] | + (+ = 15 ≤ AUC < 100)
0.017 | 0.01 | Cc1cncc(-c2cc3c(cc2Nc2cccc4c2C(=O)N([C@H]2CCC(=O)NC2=O)C4=O)N(C)C(=O)CO3)c1 [Compound 41, (S)-2-(2,6-dioxopiperidin-3-yl)-4-((4-methyl-7-(5-methylpyridin-3-yl)-3-oxo-3,4-dihydro-2H-benzo[b][1,4]oxazin-6-yl)amino)isoindoline-1,3-dione] | +++ (+++ = AUC ≥ 150)
0.018 | 0.009 | Cc1cncc(-c2cc3c(cc2Nc2cccc4c2C(=O)N([C@H]2CCC(=O)NC2=O)C4=O)N(C)C(=O)[C@@H](C)O3)c1 [Compound 42, 4-(((R)-2,4-dimethyl-7-(5-methylpyridin-3-yl)-3-oxo-3,4-dihydro-2H-benzo[b][1,4]oxazin-6-yl)amino)-2-((S)-2,6-dioxopiperidin-3-yl)isoindoline-1,3-dione] | + (+ = 15 ≤ AUC < 100)
0.024 | 0.015 | Cc1cncc(-c2cc3c(cc2Nc2cccc4c2C(=O)N([C@H]2CCC(=O)NC2=O)C4=O)N(C)C(=O)[C@H](C)O3)c1 [Compound 43, 4-(((S)-2,4-dimethyl-7-(5-methylpyridin-3-yl)-3-oxo-3,4-dihydro-2H-benzo[b][1,4]oxazin-6-yl)amino)-2-((S)-2,6-dioxopiperidin-3-yl)isoindoline-1,3-dione] | ++ (++ = 100 ≤ AUC < 150)
0.006 | 0.004 | CCO[C@H]1CC[C@H](c2cc3c(cc2Nc2cccc4c2C(=O)N([C@H]2CCC(=O)NC2=O)C4=O)N(C)C(=O)CO3)CC1 [Compound 44, 2-((S)-2,6-dioxopiperidin-3-yl)-4-((7-((1r,4S)-4-ethoxycyclohexyl)-4-methyl-3-oxo-3,4-dihydro-2H-benzo[b][1,4]oxazin-6-yl)amino)isoindoline-1,3-dione] | ++ (++ = 100 ≤ AUC < 150)
0.01 | 0.006 | CCO[C@H]1CC[C@H](c2cc3c(cc2Nc2cccc4c2C(=O)N([C@H]2CCC(=O)NC2=O)C4=O)N(C)C(=O)[C@@H](C)O3)CC1 [Compound 45, 2-((S)-2,6-dioxopiperidin-3-yl)-4-(((R)-7-((1r,4R)-4-ethoxycyclohexyl)-2,4-dimethyl-3-oxo-3,4-dihydro-2H-benzo[b][1,4]oxazin-6-yl)amino)isoindoline-1,3-dione] | ++ (++ = 100 ≤ AUC < 150)
0.007 | 0.002 | CCO[C@H]1CC[C@H](c2cc3c(cc2Nc2cccc4c2C(=O)N([C@H]2CCC(=O)NC2=O)C4=O)N(C)C(=O)[C@H](C)O3)CC1 [Compound 46, 2-((S)-2,6-dioxopiperidin-3-yl)-4-(((S)-7-((1r,4S)-4-ethoxycyclohexyl)-2,4-dimethyl-3-oxo-3,4-dihydro-2H-benzo[b][1,4]oxazin-6-yl)amino)isoindoline-1,3-dione] | ++ (++ = 100 ≤ AUC < 150)
0.049 | 0.043 | Cc1cc(-c2cc3c(cc2Nc2cccc4c2C(=O)N([C@H]2CCC(=O)NC2=O)C4=O)N(C)C(=O)CO3)cc(C(F)F)n1 [Compound 47, (S)-4-((7-(2-(difluoromethyl)-6-methylpyridin-4-yl)-4-methyl-3-oxo-3,4-dihydro-2H-benzo[b][1,4]oxazin-6-yl)amino)-2-(2,6-dioxopiperidin-3-yl)isoindoline-1,3-dione] | +++ (+++ = AUC ≥ 150)
0.052 | 0.031 | Cc1cc(-c2cc3c(cc2Nc2cccc4c2C(=O)N([C@H]2CCC(=O)NC2=O)C4=O)N(C)C(=O)[C@H](C)O3)cc(C(F)F)n1 [Compound 48, 4-(((S)-7-(2-(difluoromethyl)-6-methylpyridin-4-yl)-2,4-dimethyl-3-oxo-3,4-dihydro-2H-benzo[b][1,4]oxazin-6-yl)amino)-2-((S)-2,6-dioxopiperidin-3-yl)isoindoline-1,3-dione] | ++ (++ = 100 ≤ AUC < 150)
0.071 | 0.039 | Cc1cc(-c2cc3c(cc2Nc2cccc4c2C(=O)N([C@H]2CCC(=O)NC2=O)C4=O)N(C)C(=O)[C@@H](C)O3)cc(C(F)F)n1 [Compound 49, 4-(((R)-7-(2-(difluoromethyl)-6-methylpyridin-4-yl)-2,4-dimethyl-3-oxo-3,4-dihydro-2H-benzo[b][1,4]oxazin-6-yl)amino)-2-((S)-2,6-dioxopiperidin-3-yl)isoindoline-1,3-dione] | ++ (++ = 100 ≤ AUC < 150)
